# Measurements: patent publication US11535621B2, “Heterobicyclic amides as inhibitors of CD38” (Ribon Therapeutics, Inc., priority 2019, dated 2022)
# Target: Human CD38 (Homo sapiens (Human), UniProt P28907)
# Assay: CD38 enzyme assay
# Type: biochemical
# Details: 2 nM CD38, NAD+ substrate, absorbance at 405 nm
# Method in brief: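 IC50 values come from fitting % inhibition against compound concentration with a 4-parameter logistic, or a 3-parameter fit with top/bottom fixed at 100/0 or Hill at 1. Inhibition is scaled between DMSO wells and positive-control wells treated with a quinolinone CD38 inhibitor.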
# Human CD38, sequence (P28907 whole entry): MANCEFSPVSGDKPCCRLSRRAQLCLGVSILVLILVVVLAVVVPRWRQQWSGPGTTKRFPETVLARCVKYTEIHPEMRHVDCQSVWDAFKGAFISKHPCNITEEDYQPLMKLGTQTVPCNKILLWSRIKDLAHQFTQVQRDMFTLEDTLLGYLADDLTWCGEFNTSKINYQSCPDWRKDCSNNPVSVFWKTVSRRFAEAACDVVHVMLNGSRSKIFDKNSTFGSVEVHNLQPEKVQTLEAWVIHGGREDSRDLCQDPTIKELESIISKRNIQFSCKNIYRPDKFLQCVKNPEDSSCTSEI
row,SMILES,IC50
1,"CC(C)(O)[C@H]1CC[C@H](NC(=O)c2nc(-n3ccnc3)nc3ccsc23)CC1 [Example 210, N-((1r,4r)-4-(2-hydroxypropan-2-yl)cyclohexyl)-2-(1H-imidazol-1-yl)thieno[3,2-d]pyrimidine-4-carboxamide]",< 0.01 µM
2,"O=C(NCc1c(F)cccc1C(F)(F)F)c1cc(-c2cncs2)cc2nc[nH]c12 [Example 3, N-[[2-Fluoro-6-(trifluoromethyl)phenyl]methyl]-6-thiazol-5-yl-3H-benzimidazole-4-carboxamide]",0.1 to 1 µM
3,"C[C@]1(NCC(F)(F)F)CC[C@H](NC(=O)c2nc(-n3ccnc3)nc3cn[nH]c23)CC1 [Example 275, 5-(1H-imidazol-1-yl)-N-((1r,4r)-4-methyl-4-((2,2,2-trifluoroethyl)amino)cyclohexyl)-1H-pyrazolo[4,3-d]pyrimidine-7-carboxamide]",0.1 to 1 µM
4,"O=C(NC1CCN(CC(F)(F)F)CC1)c1nc(-n2ccnc2)nc2cc[nH]c12 [Example 52, 2-(1H-Imidazol-1-yl)-N-(1-(2,2,2-trifluoroethyl)piperidin-4-yl)-5H-pyrrolo[3,2-d]pyrimidine-4-carboxamide]",0.01 to 0.1 µM
5,"O=C(N[C@H]1CC[C@H](NCC(F)(F)F)CC1)c1nc(-n2ccnc2)nc2cc[nH]c12 [Example 101, 2-(1H-imidazol-1-yl)-N-((1r,4r)-4-((2,2,2-trifluoroethyl)amino)cyclohexyl)-5H-pyrrolo[3,2-d]pyrimidine-4-carboxamide]",0.01 to 0.1 µM
6,CN1CCN(c2ccc(NC(=O)c3nc(-n4ccnc4)nc4cc[nH]c34)cn2)CC1 [Example 154],< 0.01 µM
7,"C[C@H](O)[C@H]1CC[C@H](NC(=O)c2nc(-n3ccnc3)cc3cn[nH]c23)CC1 [Example 192a, N-((1S,4r)-4-((S)-1-hydroxyethyl)cyclohexyl)-5-(1H-imidazol-1-yl)-1H-pyrazolo[3,4-c]pyridine-7-carboxamide]",< 0.01 µM
8,COC(C)(C)[C@H]1CC[C@H](NC(=O)c2nc(-n3ccnc3)nc3cc[nH]c23)CC1 [Example 187],0.01 to 0.1 µM
9,"CC(F)(F)CN[C@H]1CC[C@H](NC(=O)c2nc(-n3ccnc3)nc3cn[nH]c23)CC1 [Example 244, N-((1r,4r)-4-((2,2-difluoropropyl)amino)cyclohexyl)-5-(1H-imidazol-1-yl)-1H-pyrazolo[4,3-d]pyrimidine-7-carboxamide]",0.01 to 0.1 µM
10,"O=C(N[C@H]1CC[C@H](NCCC(F)(F)F)CC1)c1nc(-n2ccnc2)nc2ccsc12 [Example 222, 2-(1H-imidazol-1-yl)-N-((1r,4r)-4-((3,3,3-trifluoropropyl)amino)cyclohexyl)thieno[3,2-d]pyrimidine-4-carboxamide]",0.01 to 0.1 µM
11,"CC(C)(N[C@H]1CC[C@H](NC(=O)c2nc(-n3ccnc3)nc3cc[nH]c23)CC1)C(F)(F)F [Example 272, 2-(1H-imidazol-1-yl)-N-((1r,4r)-4-((1,1,1-trifluoro-2-methylpropan-2-yl)amino)cyclohexyl)-5H-pyrrolo[3,2-d]pyrimidine-4-carboxamide]",0.01 to 0.1 µM
12,O=C(N[C@H]1CC[C@H](N2CCOCC2)CC1)c1nc(-n2ccnc2)nc2cc[nH]c12 [Example 155],0.01 to 0.1 µM
13,"CC(C)(O)[C@H]1CC[C@H](NC(=O)c2nc(-n3ccnc3)nc3cn[nH]c23)CC1 [Example 182, N-((1r,4r)-4-(2-hydroxypropan-2-yl)cyclohexyl)-5-(1H-imidazol-1-yl)-1H-pyrazolo[4,3-d]pyrimidine-7-carboxamide]",< 0.01 µM
14,"COc1ccc(NC(=O)c2nc(-n3ccnc3)nc3cc[nH]c23)nc1 [Example 84, 2-(1H-Imidazol-1-yl)-N-(5-methoxypyridin-2-yl)-5H-pyrrolo[3,2-d]pyrimidine-4-carboxamide]",< 0.01 µM
15,"O=C(NCc1c(F)cccc1C(F)(F)F)c1cc(-n2ccnc2)cc2cc[nH]c12 [Example 5, N-(2-Fluoro-6-(trifluoromethyl)benzyl)-5-(1H-imidazol-1-yl)-1H-indole-7-carboxamide]",0.1 to 1 µM
16,"COCCOc1cccc(NC(=O)c2nc(-n3ccnc3)nc3cc[nH]c23)c1 [Example 100, 2-(1H-Imidazol-1-yl)-N-(3-(2-methoxyethoxy)phenyl)-5H-pyrrolo[3,2-d]pyrimidine-4-carboxamide]",< 0.01 µM
17,"N#Cc1ccc(O[C@H]2CC[C@H](NC(=O)c3nc(-n4ccnc4)nc4cc[nH]c34)CC2)cc1 [Example 212, N-((1r,4r)-4-(4-cyanophenoxy)cyclohexyl)-2-(1H-imidazol-1-yl)-5H-pyrrolo[3,2-d]pyrimidine-4-carboxamide]",< 0.01 µM
18,O=C(N[C@H]1CC[C@H](C(F)(F)F)CC1)c1nc(-n2ccnc2)nc2cn[nH]c12 [Example 160],0.01 to 0.1 µM
19,CC1(NC(=O)c2nc(-n3ccnc3)nc3cc[nH]c23)CCOCC1 [Example 135],0.01 to 0.1 µM
20,"O=C(NCc1c(F)cccc1C(F)(F)F)c1cc(-n2ccnc2)cc2nc[nH]c12 [Example 2, N-(2-Fluoro-6-(trifluoromethyl)benzyl)-5-(1H-imidazol-1-yl)-1H-benzo[d]imidazole-7-carboxamide]",> 1 µM

row,SMILES,IC50
1,"O=C(Nc1cccc(Cl)c1)c1nc(-n2ccnc2)nc2cc[nH]c12 [Example 88, N-(3-Chlorophenyl)-2-(1H-imidazol-1-yl)-5H-pyrrolo[3,2-d]pyrimidine-4-carboxamide]",< 0.01 µM
2,"O=C(N[C@H]1CC[C@H](NCC(F)F)CC1)c1nc(-n2ccnc2)cc2cn[nH]c12 [Example 195, N-((1r,4r)-4-((2,2-difluoroethyl)amino)cyclohexyl)-5-(1H-imidazol-1-yl)-1H-pyrazolo[3,4-c]pyridine-7-carboxamide]",0.01 to 0.1 µM
3,"CC(C)(N[C@H]1CC[C@H](NC(=O)c2nc(-n3ccnc3)nc3cc[nH]c23)CC1)C(F)F [Example 273, N-((1r,4r)-4-((1,1-difluoro-2-methylpropan-2-yl)amino)cyclohexyl)-2-(1H-imidazol-1-yl)-5H-pyrrolo[3,2-d]pyrimidine-4-carboxamide]",0.01 to 0.1 µM
4,"CC(=O)NC[C@H]1CC[C@H](NC(=O)c2nc(-n3ccnc3)nc3cn[nH]c23)CC1 [Example 243, N-((1r,4r)-4-(acetamidomethyl)cyclohexyl)-5-(1H-imidazol-1-yl)-1H-pyrazolo[4,3-d]pyrimidine-7-carboxamide]",0.01 to 0.1 µM
5,"O=C(Nc1ccc(Cl)cc1)c1nc(-n2ccnc2)nc2cc[nH]c12 [Example 87, N-(4-Chlorophenyl)-2-(1H-imidazol-1-yl)-5H-pyrrolo[3,2-d]pyrimidine-4-carboxamide]",< 0.01 µM
6,"COCCO[C@H]1CC[C@H](NC(=O)c2nc(-n3ccnc3)nc3ncsc23)CC1 [Example 25, 5-(1H-Imidazol-1-yl)-N-((1r,4r)-4-(2-methoxyethoxy)cyclohexyl)thiazolo[4,5-d]pyrimidine-7-carboxamide]",0.1 to 1 µM
7,"CN(CC(F)(F)F)[C@H]1CC[C@H](NC(=O)c2nc(-n3ccnc3)nc3cn[nH]c23)CC1 [Example 248, 5-(1H-imidazol-1-yl)-N-((1r,4r)-4-(methyl(2,2,2-trifluoroethyl)amino)cyclohexyl)-1H-pyrazolo[4,3-d]pyrimidine-7-carboxamide]",0.01 to 0.1 µM
8,"C[C@]1(O)CC[C@@H](NC(=O)c2nc(-n3ccnc3)cc3cn[nH]c23)CC1 [Example 226, N-((1s,4s)-4-hydroxy-4-methylcyclohexyl)-5-(1H-imidazol-1-yl)-1H-pyrazolo[3,4-c]pyridine-7-carboxamide]",0.01 to 0.1 µM
9,"O=C(NC1CCC1)c1nc(-n2ccnc2)nc2cc[nH]c12 [Example 77, N-Cyclobutyl-2-(1H-imidazol-1-yl)-5H-pyrrolo[3,2-d]pyrimidine-4-carboxamide]",< 0.01 µM
10,C[C@]1(O)CC[C@H](NC(=O)c2nc(-n3ccnc3)nc3cc[nH]c23)CC1 [Example 176],0.01 to 0.1 µM
11,"O=C(N[C@H]1CC[C@@H](OCC(F)(F)F)CC1)c1nc(-n2ccnc2)cc2cn[nH]c12 [Example 251, 5-(1H-imidazol-1-yl)-N-((1s,4s)-4-(2,2,2-trifluoroethoxy)cyclohexyl)-1H-pyrazolo[3,4-c]pyridine-7-carboxamide]",0.01 to 0.1 µM
12,"O=C(N[C@H]1CC[C@@H](NCC(F)(F)F)CC1)c1nc(-n2ccnc2)nc2cc[nH]c12 [Example 102, 2-(1H-imidazol-1-yl)-N-((1s,4s)-4-((2,2,2-trifluoroethyl)amino)cyclohexyl)-5H-pyrrolo[3,2-d]pyrimidine-4-carboxamide]",0.01 to 0.1 µM
13,"O=C(N[C@H]1CC[C@H](N2CC(F)(F)C2)CC1)c1nc(-n2ccnc2)nc2cc[nH]c12 [Example 204, N-((1r,4r)-4-(3,3-difluoroazetidin-1-yl)cyclohexyl)-2-(1H-imidazol-1-yl)-5H-pyrrolo[3,2-d]pyrimidine-4-carboxamide]",0.01 to 0.1 µM
14,"O=C(NCc1c(F)cccc1C(F)(F)F)c1cc(-c2cncs2)cc2cc[nH]c12 [Example 31, N-(2-Fluoro-6-(trifluoromethyl)benzyl)-5-(thiazol-5-yl)-1H-indole-7-carboxamide]",0.01 to 0.1 µM
15,O=C(N[C@H]1CC[C@H](N2CCCS2(=O)=O)CC1)c1nc(-n2ccnc2)nc2cc[nH]c12 [Example 178],0.01 to 0.1 µM
16,COCCN1CCc2cc(NC(=O)c3nc(-n4ccnc4)nc4cc[nH]c34)ccc2C1 [Example 179],0.01 to 0.1 µM
17,"O=C(NC1CCN(CCC(F)(F)F)C1)c1nc(-n2ccnc2)nc2cc[nH]c12 (stereo not drawn) [Example 67, 2-(1H-Imidazol-1-yl)-N-(1-(3,3,3-trifluoropropyl)pyrrolidin-3-yl)-5H-pyrrolo[3,2-d]pyrimidine-4-carboxamide]",0.01 to 0.1 µM
18,"COCCO[C@H]1CC[C@H](NC(=O)c2cc(-n3ccnc3)cc3cc(C)[nH]c23)CC1 [Example 9, 5-(1H-Imidazol-1-yl)-N-((1r,4r)-4-(2-methoxyethoxy)cyclohexyl)-2-methyl-1H-indole-7-carboxamide]",0.1 to 1 µM
19,"O=C(NC1CCN(CC(F)(F)F)C1)c1nc(-n2ccnc2)nc2cc[nH]c12 (stereo not drawn) [Example 68, 2-(1H-Imidazol-1-yl)-N-(1-(2,2,2-trifluoroethyl)pyrrolidin-3-yl)-5H-pyrrolo[3,2-d]pyrimidine-4-carboxamide]",0.01 to 0.1 µM
